Calls of active or inactive are those of the source. No cut-off for these calls is given here.

We go through 1 compound from ChEMBL document CHEMBL4177681, “Protective effect of casuarinin against glutamate-induced apoptosis in HT22 cells through inhibition of oxidative stress-mediated MAPK phosphorylation” (Bioorg Med Chem Lett, 2017).

In experiment [1] the test system is HT-22. The experiment in a line: Neuroprotective activity against glutamate-induced cell death in mouse HT22 cells assessed as increase in cell viability […] after 24 hrs by MTT assay. It counts as functional, cell-based. For orientation: Formazan colour is commonly taken as a measure of viable cells.
Experiment [2] concerns HT-22. The experiment in a line: Neuroprotective activity against glutamate-induced apoptosis in mouse HT22 cells assessed as apoptotic cells at 50 uM after 10 to 12 hrs by Annexin V-alexa 488/propidium iodide staining based flow cytometry (reference value: 57%). It counts as functional. A general note: Flow cytometry measures light scatter and fluorescence of single cells or particles in a stream.

Experiment [3] concerns HT-22. Kind of experiment: Neuroprotective activity against glutamate-induced cell death in mouse HT22 cells assessed as reduction in apoptotic cells at 50 uM after 10 to 12 hrs by Annexin V-alexa 488/propidium iodide staining based flow cytometry. It is filed as functional.

Take `CC(=O)N[C@@H](CS)C(=O)O` [ACETYLCYSTEINE]: the outcome with HT-22 [1] and in the experiment with HT-22 [3] was Active. The Activity in the experiment with HT-22 [2] was 17%.
